# Laboratory results from US12358983B2, “Combination of anti CD19 antibody with a BCL-2 inhibitor and uses thereof” (Incyte Corporation, priority 2016, dated 2025).
# Key:
# [1] = system: TOLEDO human lymphoma cell tumors; assay: Subcutaneous human lymphoma cell xenograft model in SCID mice; settings: MOR00208 11 mg/kg i.p. twice weekly
# Description: Toledo cell line and culture medium were purchased and provided by Oncodesign. […] The cells are adherent to plastic flasks.
# A statistical test (analysis of variance, ANOVA) was performed to test for homogeneity between groups. MOR208 was injected intraperitoneally (IP) into the peritoneal cavity of mice. Combined substance was administered by oral gavage (per os, PO) via a gavage tube.
# The treatment schedule initiated at D23 was as follows:
# Animals from group 1 received one daily PO administration of PEP and one IP injection twice a week of PBS.
# Animals from group 4 received one IP injection of MOR208 at 11 mg/kg/inj on D23, D27, D30, D34, D37 and D41 followed by a single IP injection of MOR208 at 11 mg/kg/inj on D48 (twice a week).
# The viability and behavior were recorded every day. Body weights and tumor volume were measured twice a week. The length and width of the tumor were measured twice a week with calipers and the volume of the tumor was estimated by the formula:
# MEC-1 cells = assay: Cytotoxicity (ADCC assay with NK effector cells) of MOR00208 and venetoclax alone and in combination in MEC-1 cells; format: cell-based
# Excerpt: Cell lines tested: MEC-1 cells (DSMZ# ACC497). Culture conditions of cell lines used are according to supplier's information. Cell Medium: lscove's Modified Dulbecco's Medium (IMDM), Invitrogen, Cat No.: 31980; RPMI1640, Invitrogen, Cat No.: 31870; GlutaMAX, Invitrogen, CAT No.: 35050; FCS: Sigma CAT No.: F7524 LOT No.: 111M3396. NKs: RPMI1640, with GlutaMAX, Invitrogen, Cat No.: 31870, 10% FCS; Biocoll: Biochrome AG CAT No.: L6115 LOT No.: 0034D; MACS NK cell isolation kit: Miltenyi Biotec CAT No.: 130-092-657 LOT No.: 5150402327; venetoclax: Selleck Chem. CAT No.: S8048 LOT No.: S804803; FCS: Sigma CAT No.: F7524 LOT No.: 111M3396; and RefmAb33 (anti-RSV) with same Fc region as MOR00208.
# The cytotoxic potential of MOR00208 and venetoclax alone and in combination were tested in the MEC-1 cell line (CLL). Target cell killing is measured using the following parameters: venetoclax mono treatment at concentrations of 3 μM, 6.5 μM, and 10 μM; MOR00208 mono treatment at concentrations of 0.01 pM, 0.1 pM, 1 pM, 10 pM, 100 pM and 10 nM, and the combination treatment of the listed venetoclax and MOR00208 concentrations. The following are used as controls: RefnnAb33, NK cells alone, MEC-1 cells alone or DMSO. In the venetoclax mono groups as well as in the MOR00208+venetoclax combination groups, target cells were pretreated with venetoclax or with DMSO control for 24 hours followed by removal of the dead cells prior to the ADCC assay. A dead cell removal kit was used to remove cells killed by the cytotoxic effect of venetoclax. The dead cell removal kit was implemented to mimick the removal of dead cells that also occurs in vivo and to prevent false negative interference of the dead cells with the subsequent ADCC assay. For the ADCC assay, target cells are counted and stained using CFSE at a final concentration of 1 μg/mL. For the control group, i.e. DMSO treated target cells, the effector: target (E:T) cell ratio was adjusted to 2:1, i.e. 1×10E6/nnL effector cells (NK cells) and 5×10E5/mL target cells (MEC-1 cells). […] The ADCC assays were performed as follows: using 96 well plates, 100 μL of MEC-1 target cell suspension was added per well, followed by 100 μL NK effector cell suspension per well. Mixed cell suspensions were centrifuged and resuspended in 100 μL antibody containing medium or the according control solution. The antibodies were diluted in a range of 10 nM-0.01 pM (corresponds to 1.5 μg/mL-1.5 pg/mL) in medium. The ADCC assays were incubated for 2 hours in a CO2-incubator at 37° C. After 10 minutes incubation on ice, 50 μL DAPI solution was added to each well (final concentration 1 μg/mL) and incubated for additional 10 minutes on ice. The ADCC measurements were performed on a BD FACSVerse instrument. Dead target cells were identified as DAPI positive cells.
# Combination Index (CI) calculations are completed in order to determine synergy of the combination of the exemplified anti-CD19 antibody and venetoclax as compared to MOR00208 and venetoclax alone. Such calculations are described in Ting-Chao Chou, Theoretical Basis, Experimental Design, and Computerized Simulation of Synergism and Antagonism in Drug Combination Studies, Pharmacol Rev 58:621-681 (2006), which is incorporated by reference in its entirety and Chou TC, Talalay P, Quantitative analysis of dose-effect relationships: the combined effects of multiple drugs or enzyme inhibitors. Adv Enzyme Regul 22: 27-55 (1984), which is incorporated by reference in its entirety. The methods of Chou-Talalay are carried out using the CI-isobol method.
# The median-effect equation models the effect of an inhibitor (such as a drug) as Fa/Fu=(D/D50)^m, where D is the dose, Fa and Fu is the fraction of the system affected and unaffected by the dose D (Fa+Fu=1); D50 is the dose producing the median effect (e.g. IC50, ED50, LD50). The constant m determines the shape of the dose-effect curve.
substance,measurement,setting,value
"MOR00208: anti-CD19 antibody; heavy chain SEQ ID NO: 14, light chain SEQ ID NO: 15",Median Tumor Doubling Time,[1],8.0 days
same,Median Survival (Days Post-Randomization),[1]; humane endpoint tumor volume 2000 mm3,25.3 days
same,Median % Increase in Doubling Time (IDT),[1]; vs. PEP/PBS Control,18%
same,Median % Increase in Lifespan (ILS),[1]; vs. PEP/PBS Control,20%
same,Actual MOR00208 Effect,"MEC-1 cells; Exp 1, MOR00208 1.50E+00 μg/mL",69.4 % dead cells
same,Actual MOR00208 Effect,"MEC-1 cells; Exp 1, MOR00208 1.50E−02 μg/mL",66.8 % dead cells
same,Actual MOR00208 Effect,"MEC-1 cells; Exp 1, MOR00208 1.50E−03 μg/mL",43.4 % dead cells
same,Actual MOR00208 Effect,"MEC-1 cells; Exp 1, MOR00208 1.50E−04 μg/mL",22.8 % dead cells
same,Actual MOR00208 Effect,"MEC-1 cells; Exp 1, MOR00208 1.50E−05 μg/mL",17.4 % dead cells
same,Actual MOR00208 Effect,"MEC-1 cells; Exp 1, MOR00208 1.50E−06 μg/mL",15.3 % dead cells
same,Theoretical MOR00208 Dose,"MEC-1 cells; Exp 1, same effect as MOR00208 1.50E+00 μg/mL + venetoclax 3.0 μM",* 1.00E+03^ μg/mL
same,Theoretical MOR00208 Dose,"MEC-1 cells; Exp 1, same effect as MOR00208 1.50E+00 μg/mL + venetoclax 6.5 μM",* 1.00E+03^ μg/mL
same,Theoretical MOR00208 Dose,"MEC-1 cells; Exp 1, same effect as MOR00208 1.50E+00 μg/mL + venetoclax 10.0 μM",* 1.00E+03^ μg/mL
same,Theoretical MOR00208 Dose,"MEC-1 cells; Exp 1, same effect as MOR00208 1.50E−02 μg/mL + venetoclax 3.0 μM",0.0304 µg/mL
same,Theoretical MOR00208 Dose,"MEC-1 cells; Exp 1, same effect as MOR00208 1.50E−02 μg/mL + venetoclax 6.5 μM",* 1.00E+03^ μg/mL
same,Theoretical MOR00208 Dose,"MEC-1 cells; Exp 1, same effect as MOR00208 1.50E−02 μg/mL + venetoclax 10.0 μM",* 1.00E+03^ μg/mL
same,Theoretical MOR00208 Dose,"MEC-1 cells; Exp 1, same effect as MOR00208 1.50E−03 μg/mL + venetoclax 3.0 μM",0.00125 µg/mL
same,Theoretical MOR00208 Dose,"MEC-1 cells; Exp 1, same effect as MOR00208 1.50E−03 μg/mL + venetoclax 6.5 μM",0.00404 µg/mL
same,Theoretical MOR00208 Dose,"MEC-1 cells; Exp 1, same effect as MOR00208 1.50E−03 μg/mL + venetoclax 10.0 μM",0.00914 µg/mL
same,Theoretical MOR00208 Dose,"MEC-1 cells; Exp 1, same effect as MOR00208 1.50E−04 μg/mL + venetoclax 3.0 μM",0.000132 µg/mL
same,Theoretical MOR00208 Dose,"MEC-1 cells; Exp 1, same effect as MOR00208 1.50E−04 μg/mL + venetoclax 6.5 μM",0.00041 µg/mL
same,Theoretical MOR00208 Dose,"MEC-1 cells; Exp 1, same effect as MOR00208 1.50E−04 μg/mL + venetoclax 10.0 μM",0.000543 µg/mL
same,Theoretical MOR00208 Dose,"MEC-1 cells; Exp 1, same effect as MOR00208 1.50E−05 μg/mL + venetoclax 3.0 μM",1.41e-05 µg/mL
same,Theoretical MOR00208 Dose,"MEC-1 cells; Exp 1, same effect as MOR00208 1.50E−05 μg/mL + venetoclax 6.5 μM",8.47e-05 µg/mL
same,Theoretical MOR00208 Dose,"MEC-1 cells; Exp 1, same effect as MOR00208 1.50E−05 μg/mL + venetoclax 10.0 μM",0.000163 µg/mL
same,Theoretical MOR00208 Dose,"MEC-1 cells; Exp 1, same effect as MOR00208 1.50E−06 μg/mL + venetoclax 10.0 μM",2.33e-05 µg/mL
same,Actual MOR00208 Effect,"MEC-1 cells; Exp 2, MOR00208 1.50E+00 μg/mL",74.8 % dead cells
same,Actual MOR00208 Effect,"MEC-1 cells; Exp 2, MOR00208 1.50E−02 μg/mL",69.6 % dead cells
same,Actual MOR00208 Effect,"MEC-1 cells; Exp 2, MOR00208 1.50E−03 μg/mL",55.9 % dead cells
same,Actual MOR00208 Effect,"MEC-1 cells; Exp 2, MOR00208 1.50E−04 μg/mL",40.3 % dead cells
same,Actual MOR00208 Effect,"MEC-1 cells; Exp 2, MOR00208 1.50E−05 μg/mL",34.5 % dead cells
same,Actual MOR00208 Effect,"MEC-1 cells; Exp 2, MOR00208 1.50E−06 μg/mL",29.7 % dead cells
same,Theoretical MOR00208 Dose,"MEC-1 cells; Exp 2, same effect as MOR00208 1.50E+00 μg/mL + venetoclax 3.0 μM",* 1.00E+03^ μg/mL
same,Theoretical MOR00208 Dose,"MEC-1 cells; Exp 2, same effect as MOR00208 1.50E+00 μg/mL + venetoclax 6.5 μM",* 1.00E+03^ μg/mL
same,Theoretical MOR00208 Dose,"MEC-1 cells; Exp 2, same effect as MOR00208 1.50E+00 μg/mL + venetoclax 10.0 μM",* 1.00E+03^ μg/mL
same,Theoretical MOR00208 Dose,"MEC-1 cells; Exp 2, same effect as MOR00208 1.50E−02 μg/mL + venetoclax 3.0 μM",* 1.00E+03^ μg/mL
